{"source": "patent US11186817B2", "about": "“Chemically defined cell culture media additive” (IUCF-HYU (INDUSTRY-UNIVERSITY COOPERATION FOUNDATION …, priority 2014, dated 2021)", "system": "CHO DG44 cell line", "experiment": "Cell line growth in HY-CDM media supplemented with DHF", "assay_type": "cell-based, Chinese hamster", "excerpt": "1. Cell line and media: CHO DG44 cell line was used as a DHFR-deficient cell line. The cell line was passaged 80 times or more and suspension adapted in HY-CDM (in-house) media as chemically defined media. The suspension-adapted cell line was used to evaluate the influence of tetrahydrofolate (THF) and dihydrofolate (DHF) and the growth characteristics in commercial chemically defined media. The HY-CDM media were composed of chemically defined components only. Each HY-CDM medium further included a growth factor. HY-CDM media used in Examples 1, 3, and 4 were free of an animal derived lipid mixture, and HY-CDM media used in Example 2 were supplemented with cod liver oil.\n2. Cell suspension culture: The cell line was inoculated at a density of 4×10^5 cells/ml and cultured in an Erlenmeyer flask with a 30 ml/125 ml working volume on an orbital shaker at 120 rpm under humidified conditions at 37° C. and 5% CO2. Before inoculation, the cells were centrifuged at 1,000 rpm (×162 g) for 5 min, the supernatant was discarded, and the remaining cells were dispersed into single cells in the heated medium. The cells were passaged three times to minimize the influence of the remaining medium under the experimental conditions. The subcultured cells were evaluated.\n3. Density of live cells: The density of live cells was analyzed using a hemocytometer (Neubauer improved bright-line, Marienfeld, Germany), an inverted microscope (CK30, Olympus, Japan), and trypan blue dye exclusion.\nDHF was used at the same concentrations as THF. The addition of DHF at concentrations of […] improved cell growth by 11% and 24%, respectively (Table 8), which were about 7 times lower than the addition of THF.", "data": [{"compound": "Nc1nc(=O)c2c([nH]1)NCC(CNc1ccc(C(=O)N[C@@H](CCC(=O)O)C(=O)O)cc1)=N2", "note": "[DHF, dihydrofolate]", "values": [{"measurement": "Increment compared to control", "setting": "DHF 1.8 μM", "result": 1.5, "unit": "%"}, {"measurement": "Maximum cell concentration, Average", "setting": "DHF 1.8 μM", "result": "18.0 ×10^5 cells/ml"}, {"measurement": "Increment compared to control", "setting": "DHF 3.6 μM", "result": 11.1, "unit": "%"}, {"measurement": "Maximum cell concentration, Average", "setting": "DHF 3.6 μM", "result": "19.7 ×10^5 cells/ml"}, {"measurement": "Cell growth improvement lower than with the addition of THF", "setting": "DHF 3.6 μM and 35.9 μM", "result": "about 7 times"}, {"measurement": "Increment compared to control", "setting": "DHF 35.9 μM", "result": 24.1, "unit": "%"}, {"measurement": "Maximum cell concentration, Average", "setting": "DHF 35.9 μM", "result": "22.0 ×10^5 cells/ml"}, {"measurement": "Improved cell growth", "setting": "DHF 3.6 M", "result": 11, "unit": "%"}, {"measurement": "Improved cell growth", "setting": "DHF 35.9 M", "result": 24, "unit": "%"}]}]}
